IC50 data for 35 compounds are collected here from patent US9963462B2 (priority 2015, dated 2018).

A word on the IC50: it is the point on the concentration scale where inhibition reaches its midpoint.

Read-outs that look alike come from different tables or passages of the source.

The target in assay [1] is SNAP-hSPR (sepiapterin reductase, SPR) (Homo sapiens, UniProt P35270). Nature of the assay: biochemical. The class given is binding. The conditions noted are these: terbium labelled SNAP-hSPR / SSZ labelled SNAP-EGFP; read-out: hTR-FRET IC50.
SNAP-hSPR (sepiapterin reductase, SPR), sequence (P35270 whole entry): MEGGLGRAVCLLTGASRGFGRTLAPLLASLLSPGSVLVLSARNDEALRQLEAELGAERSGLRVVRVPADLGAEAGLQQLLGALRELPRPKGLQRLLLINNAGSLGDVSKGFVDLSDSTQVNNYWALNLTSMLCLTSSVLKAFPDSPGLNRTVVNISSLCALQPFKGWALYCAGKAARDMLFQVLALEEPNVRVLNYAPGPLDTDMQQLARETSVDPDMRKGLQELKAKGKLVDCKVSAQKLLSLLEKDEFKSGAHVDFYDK
The test system of assay [2] is BH4 levels in SK-N-BE (2) cells. Nature of the assay: SKN-N-BE (2) cellular assay, BH4 levels by LC-MS. The class given is cell-based.
Protocol: SKN-N-BE(2) Cellular Assay: SK-N-BE (2) cells were seeded in sterile, 96-well plates and incubated for 12-24 hours at 37° C. with 5% CO2 supply. Media was removed and fresh DMEM/F-12 media (containing Glutamine & Pen/Strep but no FBS) was added. Compounds (at different concentrations) were added to different wells. The plates were then incubated for 6-48 hours at 37° C. with 5% CO2 supply. Plates were then centrifuged and the supernatant was removed. The plates were then optionally washed once with PBS. They were then sealed and stored at −80° C. or immediately used. The cells were lysed and the level of BH4 was assessed by LC-MS.
Compounds were assayed for SPR inhibitory activity using a SKN-N-BE (2) cellular assay according to the following procedure. SK-N-BE (2) cells were seeded in sterile, 96-well plates and incubated for 12-24 hours at 37° C. with 5% CO2 supply. Media was removed and fresh DMEM/F-12 media (containing Glutamine & Pen/Strep but no FBS) was added. Compounds (at different concentrations) were added to different wells. The plates were then incubated for 6-48 hours at 37° C. with 5% CO2 supply. Plates were then centrifuged and the supernatant was removed. The plates were then optionally washed once with PBS. They were then sealed and stored at −80° C. or immediately used in the next step. The cells were lysed and the levels of BH4 were assessed by LC-MS.
Where [3] appears, read: Homo sapiens, SKNBE2, read-out: SK-N-BE(2) IC50, SK-N-BE (2) cells, BH4 levels by LC-MS.

For the compound `O=C(c1cccc(-c2nc3c(c(=O)[nH]2)CCC3)c1)N1CCC(C(F)(F)F)CC1` [Q-0593, 2-(3-(4-(trifluoromethyl)piperidine-1-carbonyl)phenyl)-6,7-dihydro-3H-cyclopenta[d]pyrimidin-4(5H)-one], the IC50 in assay [1] turned out to be 200 nM; in assay [2] (setting [3]) it was 7400 nM.
Take `Cc1c(C(=O)N2CCC(c3c[nH]c4ccccc34)CC2)ccnc1-c1nc2ccsc2c(=O)[nH]1` [Q-0594]: the IC50 in assay [1] came to 300 nM; in assay [2] (setting [3]) it was 3600 nM.
Regarding `Cc1c(C(=O)N2CCC3(CCCCN3)C2)cnn1-c1nc2ccsc2c(=O)[nH]1` (stereo not shown) [Q-0595], the values for the IC50 in assay [1] and in assay [2] (setting [3]) were 70 nM and 4400 nM, respectively.
For the compound `Cc1c(C(=O)N2CC2c2ccccc2)cnn1-c1nc2c(c(=O)[nH]1)CCC2` (stereo not shown) [Q-0596], the IC50 in assay [1] was found to be 4 nM; in assay [2] (setting [3]), 16 nM.
The like results for `Cc1c(C(=O)N2CCC(S(=O)(=O)c3ccc(F)c(F)c3)CC2)cnn1-c1nc2ccsc2c(=O)[nH]1` [Q-0597] were, in that order, 3 nM and 53 nM.
As to `Cc1c(C(=O)N2CCC(C(O)(C(F)(F)F)C(F)(F)F)CC2)cnn1-c1nc2c(c(=O)[nH]1)CCC2` [Q-0598], the IC50 is 4 nM in assay [1] and 10 nM in assay [2] (read-out: SK-N-BE(2) IC50, SK-N-BE (2) cells, BH4 levels by LC-MS).
As for `Cc1c(C(=O)N2CCC(C#N)(c3ccccc3)CC2)cnn1-c1nn2cccc2c(=O)[nH]1` [Q-0599], the IC50 in assay [1] was 2 nM; in assay [2] (setting [3]), 12 nM.
`Cc1c(C(=O)N2CCC(C(C)(C)C#N)CC2)cnn1-c1nn2cccc2c(=O)[nH]1` [Q-0600]: the results for the IC50 in assay [1] and in assay [2] (setting [3]) were 1 nM and 57 nM, respectively.
As to `Cc1c(C(=O)N2CCC3(CCCN3Cc3ccccc3)C2)cnn1-c1nc2ccsc2c(=O)[nH]1` (stereo not shown) [Q-0601], the IC50 in assay [1] is 5 nM; in assay [2] (setting [3]) it was 100 nM.
Take `Cc1c(C(=O)N2CC3COCC(C3)C2)cnn1-c1nc2ccsc2c(=O)[nH]1` [Q-0602]: the IC50 turned out to be 20 nM in assay [1] and 1200 nM in assay [2] (setting [3]).
Take `Cc1c(C(=O)N2CCC(c3nc4cc(F)ccc4s3)CC2)cnn1-c1nc2ccsc2c(=O)[nH]1` [Q-0603]: the IC50 stood at 6 nM in assay [1] and 100 nM in assay [2] (setting [3]).
Turning to `Cc1c(C(=O)N2CCC(c3nc4cc(F)ccc4s3)CC2)cnn1-c1nn2cccc2c(=O)[nH]1` [Q-0604], the IC50 in assay [1] came to 7 nM; in assay [2] (setting [3]), 72 nM.
With `Cc1c(C(=O)N2CCC(c3nc4ccccc4s3)CC2)ccnc1-c1nc2ccsc2c(=O)[nH]1` [Q-0605], the IC50 in assay [1] was found to be 200 nM; in assay [2] (setting [3]) it was 10000 nM.
For `Cc1c(C(=O)N2CCC(C(F)(F)F)CC2)cnn1-c1nn2c(F)ccc2c(=O)[nH]1` [Q-0606] the same measures were 2 nM and 51 nM.
For `Cc1c(C(=O)N2CCC(c3nc4ccccc4s3)CC2)cnn1-c1nn2c(F)ccc2c(=O)[nH]1` [Q-0607] the same measures were 5 nM and 87 nM.
The like results for `Cc1c(C(=O)N2CCC(c3nc4ccccc4s3)CC2)cnn1-c1nn2cccc2c(=O)[nH]1` [Q-0608] were, in that order, 2 nM and 56 nM.
For the compound `O=C(c1ccc(-c2nc3c(c(=O)[nH]2)CCC3)s1)N1CCC(C(F)(F)F)CC1` [Q-0609, 2-(5-(4-(trifluoromethyl)piperidine-1-carbonyl)thiophen-2-yl)-6,7-dihydro-3H-cyclopenta[d]pyrimidin-4(5H)-one], the IC50 is 1 nM in assay [1] and 84 nM in assay [2] (setting [3]).
For `Cc1c(C(=O)N2C[C@@H]3[C@H](C2)[C@@H]3C(N)=O)cnn1-c1nc2c(c(=O)[nH]1)CCC2` [Q-0610] the same measures were 10 nM and 10000 nM.
Consider `Cc1[nH]c2ccccc2c1C1CCN(C(=O)c2cnn(-c3nc4c(c(=O)[nH]3)CCC4)c2C)CC1` [Q-0611], for which the IC50 is 4 nM in assay [1] and 29 nM in assay [2] (setting [3]).
In the case of `COC(=O)C12CC(C(=O)N3CCN(C(=O)c4cnn(-c5nc6c(c(=O)[nH]5)CCC6)c4C)CC3)(C1)C2` [Q-0612], the IC50 in assay [1] was 10 nM; in assay [2] (setting [3]), 2600 nM.
For `Cc1c(C(=O)N2CC3CC3(O)C2)cnn1-c1nc2c(c(=O)[nH]1)CCC2` (stereo not shown) [Q-0614] the same measures were 10 nM and 1600 nM.
For `Cc1c(C(=O)N2CCC(c3cccc4[nH]ccc34)CC2)cnn1-c1nc2c(c(=O)[nH]1)CCC2` [Q-0615] the same measures were 3 nM and 19 nM.
As for `O=C(c1cnn(-c2nn3cc(F)cc3c(=O)[nH]2)c1)N1CCC(C(F)(F)F)CC1` [Q-0616, 6-fluoro-2-(4-(4-(trifluoromethyl)piperidine-1-carbonyl)-1H-pyrazol-1-yl)pyrrolo[1,2-f][1,2,4]triazin-4(3H)-one], the IC50 in assay [1] turned out to be 2 nM; in assay [2] (setting [3]), 100 nM.
For `Cc1c(C(=O)N2CC3CC3(O)C2)cnn1-c1nc2sccc2c(=O)[nH]1` (stereo not shown) [Q-0617] the same measures were 20 nM and 3000 nM.
For `COC(=O)c1cnn(-c2nn3c(F)ccc3c(=O)[nH]2)c1C1CC1` [Q-0618] the same measures were 1 nM and 25 nM.
Turning to `COC(=O)c1cnn(-c2nn3c(F)ccc3c(=O)[nH]2)c1C` [Q-0619], the IC50 in assay [1] came to 3 nM; in assay [2] (setting [3]), 300 nM.
With `O=C(c1cnn(-c2nn3c(F)ccc3c(=O)[nH]2)c1C1CC1)N1CCC(C(F)(F)F)CC1` [Q-0620], the IC50 in assay [1] was 1 nM; in assay [2] (setting [3]), 100 nM.
The like results for `Cc1c(C(=O)N2CC3CC3(O)C2)cnn1-c1nc2ccsc2c(=O)[nH]1` (stereo not shown) [Q-0621] were, in that order, 20 nM and 5200 nM.
The like results for `Cc1c(C(=O)N2CCC(C(F)(F)F)CC2)ccn1-c1nc2c(c(=O)[nH]1)CCC2` [Q-0622, 2-(2-methyl-3-(4-(trifluoromethyl)piperidine-1-carbonyl)-1H-pyrrol-1-yl)-6,7-dihydro-3H-cyclopenta[d]pyrimidin-4(5H)-one] were, in that order, 1 nM and 58 nM.
The like results for `CCC1(C#N)CCN(C(=O)c2cnn(-c3nn4c(F)ccc4c(=O)[nH]3)c2C)CC1` [Q-0623] were, in that order, 1 nM and 78 nM.
As for `Cc1c(C(=O)N2CCC(c3c[nH]c4ccccc34)CC2)cnn1-c1nn2c(F)ccc2c(=O)[nH]1` [Q-0624], the values for the IC50 in assay [1] and in assay [2] (setting [3]) were 2 nM and 32 nM, respectively.
The like results for `CCC(C#N)(CC)C1CCN(C(=O)c2cnn(-c3nc4c(c(=O)[nH]3)CCC4)c2C)CC1` [Q-0626] were, in that order, 1 nM and 14 nM.
For `Cc1c(C(=O)N2CCN(C(=O)C34CC(C(=O)O)(C3)C4)CC2)cnn1-c1nc2c(c(=O)[nH]1)CCC2` [Q-0627, 3-(4-(5-methyl-1-(4-oxo-4,5,6,7-tetrahydro-3H-cyclopenta[d]pyrimidin-2-yl)-1H-pyrazole-4-carbonyl)piperazine-1-carbonyl)bicyclo[1.1.1]pentane-1-carboxylic acid] the same measures were 9 nM and 10000 nM.
For the compound `Cc1c(C(=O)N2CCN(C(=O)C34CC(C(N)=O)(C3)C4)CC2)cnn1-c1nc2c(c(=O)[nH]1)CCC2` [Q-0630], the IC50 in assay [1] stood at 9 nM; in assay [2] (setting [3]), 10000 nM.
The like results for `Cc1c(C(=O)N2CCN(C(=O)C34CC(C#N)(C3)C4)CC2)cnn1-c1nc2c(c(=O)[nH]1)CCC2` [Q-0632, 3-(4-(5-methyl-1-(4-oxo-4,5,6,7-tetrahydro-3H-cyclopenta[d]pyrimidin-2-yl)-1H-pyrazole-4-carbonyl)piperazine-1-carbonyl)bicyclo[1.1.1]pentane-1-carbonitrile] were, in that order, 4 nM and 7300 nM.
